{
  "source": "patent US5811083A",
  "about": "“Tocopherol derivatives for use in cosmetic compositions” (Estee Lauder, Inc., priority 1996, dated 1998)",
  "key": {"[1]": {"test_system": "UV-induced lipid peroxidation", "test": "in vitro liposomal/UV assay, inhibition of UV-induced lipid peroxidation", "type": "biochemical", "description": "The antioxidant potential and stability of equimolar concentrations of tocopherol-cysteamine, cysteamine, and a α-tocopherol were compared using an in vitro liposomal/UV assay. This assay provides an effective means of measuring an antioxidant's potential to inhibit UV-induced lipid peroxidation which may correlate with the antioxidant's inhibition of free radical generation in the skin. […] The antioxidant contribution of cysteamine to the derivative was tested by measuring cysteamine alone and determined to be 20.1%."}, "[2]": {"settings": "ambient temperatures, over a period of one week; cited from earlier work"}, "[3]": {"test_system": "UV-induced lipid peroxidation", "test": "UV/liposomal assay of anti-oxidant activity after storage for five years at ambient temperatures", "type": "biochemical", "settings": "for Inhibition: average of two separate assays performed in duplicate; for retention of antioxidant activity on storage: dry powder form, ambient temperatures, five years", "description": "The tocopherol sample used in this assay was freshly prepared and stored under argon gas in a sealed amber ampoule at -20° C. […] In contrast, the tocopherol-cysteamine samples used in the assay were stored in dry powder form at ambient temperatures for more than five years. […] In particular, several materials, including two batches of tocopherol-cysteamine, were tested for anti-oxidant activity using a UV/liposomal assay. The results reported below represent the average of two separate assays performed in duplicate."}, "[4]": {"test_system": "lipid peroxidation, human skin", "test": "clinical study, lipid peroxides in ethanol washes of ventral forearms after topical cream", "type": "in vivo", "settings": "for average level of peroxides, 500 mJ/cm^2 + Ao: UVB 500 mJ/cm^2; for average level of peroxides, 0 + Ao: not irradiated", "description": "A clinical study was undertaken in order to measure the effectiveness of topically applied compositions containing tocopherol-cysteamine on human skin. Protection against lipid peroxidation was used as a biological marker in a study of twenty subjects.\nA cream containing 0.10% tocopherol-cysteamine and other antioxidants was prepared using the batch formulation of Table III.\nThe cream containing 0.10% tocopherol-cysteamine was applied by the panelists to their left ventral forearms twice daily. The same cream formulation without any antioxidants was used as the control and applied to the right ventral forearms. At 0, 4, 8 and 12 weeks, ethanol washes were taken and samples aliquoted for endogenous levels of lipid peroxides, susceptibility to lipid peroxidation by UVB irradiation at 500 mJ/cm^2, and lipid analysis."}, "[5]": {"settings": "cited from earlier work"}, "[6]": {"settings": "week 0, cream 0.10% tocopherol-cysteamine and other antioxidants"}, "[7]": {"settings": "week 4, cream 0.10%, twice daily"}, "[8]": {"settings": "week 8, cream 0.10%, twice daily"}, "[9]": {"settings": "week 12, cream 0.10%, twice daily"}},
  "note": "“Also recorded” adds a separate entry of the source.",
  "data": [
    {"smiles": "NCCS", "note": "[Cysteamine, cysteamine, reference compound]", "values": [
      {"measurement": "% Inhibition (UV-induced lipid peroxidation)", "setting": "[1]; 0.18 mM", "value": 20.1, "unit": "%"}
    ]},
    {"smiles": "Cc1c(C)c2c(c(C)c1O)CCC(C)(CCCC(C)CCCC(C)CCCC(C)C)O2", "note": "(stereo not drawn) [Tocopherol, α-Tocopherol]", "values": [
      {"measurement": "loss of antioxidant potency on storage", "setting": "[2]", "value": "lose its antioxidant potency, and in fact become a pro-oxidant; also recorded: gradually lose antioxidant potency and become a prooxidant"},
      {"measurement": "% Inhibition (UV-induced lipid peroxidation)", "setting": "[1]; 0.18 mM", "value": 28.9, "unit": "%"}
    ]},
    {"smiles": "Cc1c(C)c2c(c(C)c1O)CCC(C)(C(=O)NCCS)O2", "note": "(stereo not drawn) [Tocopherol-cysteamine]", "values": [
      {"measurement": "activity of 5 year-old vs new batch", "setting": "[3]; 0.010%, 5 year-old vs new batch", "value": "very similar"},
      {"measurement": "Inhibition", "setting": "[3]; 5 year-old, 0.010%", "value": 57.3, "unit": "%"},
      {"measurement": "retention of antioxidant activity on storage", "setting": "[3]", "value": "did not lose significant antioxidant activity over this five year period"},
      {"measurement": "retention of antioxidant activity on storage", "setting": "[3]; listed as tocopheryl-cysteamine", "value": "does not lose any significant anti-oxidant activity"},
      {"measurement": "Inhibition", "setting": "[3]; new batch, 0.010%", "value": 65.6, "unit": "%"},
      {"measurement": "stability compared with α-tocopherol", "setting": "[3]; storage at ambient temperatures", "value": "considerably more stable"},
      {"measurement": "amount of endogenous peroxides, week 8 vs week 0", "setting": "[4]; 8 weeks vs 0 time point, p value less than 0.1", "value": "significant decrease"},
      {"measurement": "amount of peroxides generated by UVB, week 8 vs week 0", "setting": "[4]; 8 weeks vs 0 time point, p<0.01, t test", "value": "significant decrease"},
      {"measurement": "average values vs untreated samples, 12 weeks", "setting": "[4]; 12 week time point, control and irradiated preparations", "value": "lower than the untreated samples"},
      {"measurement": "peroxide levels after irradiation over the course of treatment", "setting": "[4]; irradiated, treated arms", "value": "decreased over the course of treatment"},
      {"measurement": "average endogenous peroxide levels over time", "setting": "[4]; treated but not irradiated", "value": "decreased over time"},
      {"measurement": "average level of peroxides, 500 mJ/cm^2 + Ao", "setting": "[4]; [6]", "value": 17.69},
      {"measurement": "average level of peroxides, 0 + Ao", "setting": "[4]; [6]", "value": 9.10},
      {"measurement": "average level of peroxides, 500 mJ/cm^2 + Ao", "setting": "[4]; [7]", "value": 12.95},
      {"measurement": "average level of peroxides, 0 + Ao", "setting": "[4]; [7]", "value": 8.19},
      {"measurement": "average level of peroxides, 500 mJ/cm^2 + Ao", "setting": "[4]; [8]", "value": 10.33},
      {"measurement": "average level of peroxides, 0 + Ao", "setting": "[4]; [8]", "value": 6.56},
      {"measurement": "average level of peroxides, 500 mJ/cm^2 + Ao", "setting": "[4]; [9]", "value": 26.67},
      {"measurement": "average level of peroxides, 0 + Ao", "setting": "[4]; [9]", "value": 21.19},
      {"measurement": "% Inhibition (UV-induced lipid peroxidation)", "setting": "[1]; 0.18 mM", "value": 67.3, "unit": "%"},
      {"measurement": "antioxidant activity vs α-tocopherol and cysteamine assays combined", "setting": "[1]; equimolar, 0.18 mM", "value": "greater than that activity observed in both the α-tocopherol and cysteamine assays combined"},
      {"measurement": "average inhibition of UV-induced lipid peroxidation, previous experiments", "setting": "[1]; triplicate samplings assayed in duplicate", "value": "65.2% (+/-3.61)"}
    ]},
    {"smiles": "Cc1c(C)c2c(c(C)c1O)CCC(C)(C(=O)O)O2", "note": "(stereo not drawn) [Trolox-C, 6-hydroxy-2,5,7,8-tetra-methylchroman-2-carboxylic acid]", "values": [
      {"measurement": "antioxidant activity vs α-tocopherol and other commercial food antioxidants (butylated hydroxytoluene, butylated hydroxyanisole)", "setting": "[5]; Schaal thin layer oven and AOM tests", "value": "greater antioxidant activity than α-tocopherol and other commercial food antioxidants"},
      {"measurement": "antioxidant effectiveness in vegetable oils and animal fats", "setting": "[5]; vegetable oils and animal fats", "value": "extremely effective antioxidant"}
    ]}
  ]
}
